# Measured values taken from patent US20220117938A1, “COMBINATON THERAPY WITH A DON PRODRUG AND AN IMMUNE CHECKPOINT INHIBITOR” (DRACEN PHARMACEUTICALS, INC., priority 2019, published 2022).
# Assays:
# MC38 tumors = assay: Anti-tumor efficacy of Compound 1 and Compound 3 by IV and SC routes in the MC38 model (Example 9); assay type: in vivo, mice
# Experimental: Female C57BL/6 mice were inoculated subcutaneously in the right flank with MC38 cells for tumor development. Six days after tumor inoculation, mice with tumor sizes ranging from 52-97 mm^3 (average tumor size 71 mm^3) were selected and assigned into 10 groups using stratified randomization with 8 mice per group based upon their tumor volumes. The treatments were started from the day of randomization (defined as D0), Group 1 was treated with Vehicle control, SC qd×5 days on (Mon-Fri)×4 cycles; Group 2 was treated with Compound 1, 1.4 mpk SC, qd×5 days on (Mon-Fri)×4 cycles; Group 3 was treated with Compound 1, 7 mpk IV, biw (Mon, Thu)×4 cycles; Group 4 was treated with Compound 1, 14 mpk IV, biw (Mon, Thu)×4 cycles; Group 5 was treated with Compound 1, 14 mpk IV, qw (Mon)×4 cycles; Group 6 was treated with Compound 1, 21 mpk IV, qw (Mon)×4 cycles; Group 7 was treated with Compound 3, 1 mpk SC, qd 5 days on (Mon-Fri)×4 cycles; Group 8 was treated with Compound 3, 3 mpk SC, qd 5 days on (Mon-Fri)×4 cycles; Group 9 was treated with Compound 3, 9 mpk SC, qd 5 days on (Mon-Fri)×4 cycles; and Group 10 was treated with Compound 3, 7 mpk IV, tiw (Mon, Wed, Fri)×4 cycles. The tumor sizes were measured three times per week during the treatment. Survival was monitored with tumor volume exceeding 2000 mm^3 as endpoint. The entire study was terminated on D44 after start of the treatment. All treatments were well-tolerated without any adverse effects or significant body weight loss.
# CT26.WT tumors = assay: Anti-tumor efficacy of Compound 1 in the CT26.WT model: schedule comparison (Example 5); assay type: in vivo, mice; settings: for Mean Tumor Vol / TGI: Day 14; for Mean Tumor Vol / TGI / Cures / ILS: sc
# Experimental: Female BALB/c mice were inoculated subcutaneously at right flank with CT26.WT cells for tumor development. Treatment started on day 6 after tumor inoculation when the tumor size reached 40-79 mm^3 (average tumor size 57 mm^3). Each group consisted of 8 tumor-bearing mice. The tumor sizes were measured three times per week during the treatment. The entire study was terminated on D57 after start of the treatment. Otherwise, the experimental methods and procedures are similar to those described in EXAMPLE 2B.
# [1] = Group 5, 14 mpk IV qw x4 cycles
# [2] = Group 5, 14 mpk IV qw x4 cycles, day 11
# [3] = Group 6, 21 mpk IV qw x4 cycles
# [4] = Group 6, 21 mpk IV qw x4 cycles, day 11
# [5] = Group 2: 1.4 mpk 5-days ON 2-days OFF x4 cycles
# [6] = Group 3: 1.4 mpk 5-days ON 2-days OFF x2 cycles followed by 3-days ON (Mon-Wed) 4-days OFF x2 cycles
# [7] = Group 4: 1.4 mpk 5-days ON 2-days OFF x2 cycles followed by 3-days ON (Mon, Wed, Fri) 4-days OFF x2 cycles
# [8] = Group 5: 2.33 mpk 3-days ON (Mon-Wed) 4-days OFF x4 cycles
# [9] = Group 6: 2.33 mpk 3-days ON (Mon, Wed, Fri) 4-days OFF x4 cycles
# [10] = Group 7: 0.5 mpk 5-days ON 2-days OFF x4 cycles
# [11] = Group 8: 0.83 mpk 3-days ON (Mon-Wed) 4-days OFF x4 cycles
# [12] = Group 9: 0.83 mpk 3-days ON (Mon, Wed, Fri) 4-days OFF x4 cycles
compound,measurement,setting,value
"CC(=O)N[C@@H](Cc1c[nH]c2ccccc12)C(=O)N[C@@H](CCC(=O)C=[N+]=[N-])C(=O)OC(C)C [Compound 1, Isopropyl (S)-2-((S)-2-acetamido-3-(1H-indol-3-yl)propanamido)-6-diazo-5-oxohexanoate]",MST,MC38 tumors; [1],28 days
same,RTV at day 11,MC38 tumors; [1],2.06 ± 0.40
same,Tumor Size at day 11,MC38 tumors; [1],134 ± 21 mm^3
same,Tumor volume,"MC38 tumors; Group 5, 14 mpk IV qw x4 cycles, day 0",70 ± 4 mm^3
same,Tumor volume,"MC38 tumors; Group 5, 14 mpk IV qw x4 cycles, day 2",67 ± 5 mm^3
same,Tumor volume,"MC38 tumors; Group 5, 14 mpk IV qw x4 cycles, day 4",77 ± 12 mm^3
same,Tumor volume,"MC38 tumors; Group 5, 14 mpk IV qw x4 cycles, day 7",152 ± 20 mm^3
same,Tumor volume,"MC38 tumors; Group 5, 14 mpk IV qw x4 cycles, day 9",105 ± 12 mm^3
same,T/C,MC38 tumors; [2],12.69%
same,TGI,MC38 tumors; [2],93.98%
same,Tumor volume,MC38 tumors; [2],134 ± 21 mm^3
same,Tumor volume,"MC38 tumors; Group 5, 14 mpk IV qw x4 cycles, day 14",312 ± 56 mm^3
same,ILS,MC38 tumors; [3],60.0%
same,MST,MC38 tumors; [3],24 days
same,RTV at day 11,MC38 tumors; [3],2.86 ± 0.39
same,Tumor Size at day 11,MC38 tumors; [3],206 ± 33 mm^3
same,Tumor volume,"MC38 tumors; Group 6, 21 mpk IV qw x4 cycles, day 0",71 ± 4 mm^3
same,Tumor volume,"MC38 tumors; Group 6, 21 mpk IV qw x4 cycles, day 2",79 ± 10 mm^3
same,Tumor volume,"MC38 tumors; Group 6, 21 mpk IV qw x4 cycles, day 4",80 ± 9 mm^3
same,Tumor volume,"MC38 tumors; Group 6, 21 mpk IV qw x4 cycles, day 7",182 ± 24 mm^3
same,Tumor volume,"MC38 tumors; Group 6, 21 mpk IV qw x4 cycles, day 9",164 ± 21 mm^3
same,T/C,MC38 tumors; [4],17.57%
same,TGI,MC38 tumors; [4],87.26%
same,Tumor volume,MC38 tumors; [4],206 ± 33 mm^3
same,Tumor volume,"MC38 tumors; Group 6, 21 mpk IV qw x4 cycles, day 14",440 ± 87 mm^3
same,Tumor volume,"MC38 tumors; Group 6, 21 mpk IV qw x4 cycles, day 16",515 ± 84 mm^3
same,Tumor volume,"MC38 tumors; Group 6, 21 mpk IV qw x4 cycles, day 18",740 ± 120 mm^3
same,Tumor volume,"MC38 tumors; Group 6, 21 mpk IV qw x4 cycles, day 21",1005 ± 174 mm^3
same,Tumor volume,"MC38 tumors; Group 6, 21 mpk IV qw x4 cycles, day 23",1683 ± 302 mm^3
same,ILS (maximum median survival),CT26.WT tumors; 1.4 mg/kg 5-day ON 2-day OFF,106%
same,Long term cure,"CT26.WT tumors; 1.4 mg/kg 5-day ON 2-day OFF, animals cured/animals in group",1/8
same,"Tumor growth inhibition, schedule switch compared to 1.4 mg/kg 5-day ON 2-day OFF×4 cycles","CT26.WT tumors; 1.4 mg/kg, switching from 5-day ON 2-day OFF to 3-day ON 4-day OFF on Day 14",reduced tumor growth inhibition
same,"Efficacy and survival benefit, Mon-Wed compared with Mon, Wed, Fri dosing","CT26.WT tumors; 3-day ON 4-day OFF schedules, equivalent total dose per cycle",equivalent efficacy and survival benefit
same,Tumor growth inhibition and survival benefit compared to 3-day ON 4-day OFF schedules,"CT26.WT tumors; 5-day ON 2-day OFF schedule, equivalent total dose per cycle, 4 weeks",superior tumor growth inhibition and survival benefit
same,Mean Tumor Vol,CT26.WT tumors; [5],163 ± 25 mm^3
same,TGI,CT26.WT tumors; [5],92%
same,Mean Tumor Vol,CT26.WT tumors; [6],155 ± 27 mm^3
same,TGI,CT26.WT tumors; [6],93%
same,Mean Tumor Vol,CT26.WT tumors; [7],164 ± 12 mm^3
same,TGI,CT26.WT tumors; [7],92%
same,Mean Tumor Vol,CT26.WT tumors; [8],169 ± 32 mm^3
same,TGI,CT26.WT tumors; [8],92%
same,Mean Tumor Vol,CT26.WT tumors; [9],240 ± 45 mm^3
same,TGI,CT26.WT tumors; [9],87%
same,Mean Tumor Vol,CT26.WT tumors; [10],302 ± 41 mm^3
same,TGI,CT26.WT tumors; [10],82%
same,Mean Tumor Vol,CT26.WT tumors; [11],484 ± 87 mm^3
same,TGI,CT26.WT tumors; [11],69%
same,Mean Tumor Vol,CT26.WT tumors; [12],488 ± 74 mm^3
same,TGI,CT26.WT tumors; [12],68%
same,Cures,CT26.WT tumors; [5],12.5%
same,ILS,CT26.WT tumors; [5],106%
same,Cures,CT26.WT tumors; [6],0%
same,ILS,CT26.WT tumors; [6],67%
same,Cures,CT26.WT tumors; [7],12.5%
same,ILS,CT26.WT tumors; [7],94%
same,Cures,CT26.WT tumors; [8],0%
same,ILS,CT26.WT tumors; [8],86%
same,Cures,CT26.WT tumors; [9],0%
same,ILS,CT26.WT tumors; [9],94%
same,Cures,CT26.WT tumors; [10],0%
same,ILS,CT26.WT tumors; [10],67%
same,Cures,CT26.WT tumors; [11],0%
same,ILS,CT26.WT tumors; [11],67%
same,Cures,CT26.WT tumors; [12],0%
same,ILS,CT26.WT tumors; [12],39%
